# Entries after “also recorded” stand apart in the source; their conditions may differ.
# Key:
# [1] = target: Aβ:ApoE:lipid binding complex (Homo sapiens, UniProt P05067); test: ApoE binding assay: fluorescent Aβ42 on ApoE-coated plates in presence of lipid; set-up: SensoLyte Fluorescent β-Amyloid1-42 Sampler Kit, Anaspec; HiLyte Fluor (fluorescent label); purchased ApoE: rPeptide; labelled Aβ: Anaspec; details: only at very high concentrations of Aβ
# Method: Plates were prepared as above and incubated with a constant amount of apolipoprotein E (ApoE, rPeptide) at 12.5 pmol/well FIG. 2A or 4 pmol/well FIG. 2B for 1 hour at room temperature with shaking. Plates were then blocked for 1 hour and washed with PB ST. Aβ labled with HiLyte (Anaspec) was prepared as above and mixed with increasing amount of lipid in constant concentration of NOG (0.0034%) in SuperBlock Blocking buffer and incubated overnight at 4° C. Binding was read as above at 503/528 excitation/emission).
# Assays were done in triplicate wells and reported as mean+/−standard error. Binding kinetics and best fit curve fitting were accomplished using Prism Graphpad software.
# Specific binding was determined by subtracting non-specific binding to the plate in absence of ApoE (no ApoE, 0).
# [2] = target: T1, Aβ42 peptide fluorescently tagged with FAM (Homo sapiens, UniProt P05067); test: Lipid binding assay: Aβ42-FAM on lipid-coated maleic anhydride plates
# T1 construct: SensoLyte Fluorescent β-Amyloid1-42 Sampler Kit, Anaspec; purchased Anaspec SensoLyte Fluorescent β-Amyloid1-42 Sampler Kit (catalogue number not given)
# Source text: Maleic Anhydride Activated plates (Pierce Amine-binding, 96-well plates, Thermo Scientific) were washed in wash buffer (PBS: Phosphate buffered saline, 0.15 M sodium chloride, pH 7.2 containing 0.05% Tween-20 Detergent, PBST, Thermo Scientific) 4 times to activate reactive maleic anhydride functional group. Amine containing lipids were PE containing docosahexaenoyl (22:6) and stearoyl (18:0) acyl chains (22:6/18:0 PE) or two stearoyl acyl chains (di18:0 PE) were from Avanti Polar Lipids. 22:6/18:0 PE was obtained in chloroform, dried down and solubilized at 200 pmol/μL in 1% n-octylglucoside (NOG, Santa Cruz) in PBS and sonicated for 5 minutes. di18:0 PE was obtained as a powder, solubilized at 200 pmol/μl in 1% NOG and bath sonicated for 5 minutes. […] Plates were then washed 4 times in PBST and fluorescence was detected using Tecan Infinite 200 at wavelengths 494/521 (excitation, emission) using the Optimal Gain setting. […]
# (§1) Lipid containing long chain polyunsaturated fatty acid 22:6, docosahexaenoic acid (DHA) and an amine containing headgroup, phosphatidylethanoloamine (PE) was bound to maleic anhydride activated plates which bind to free primary amine functional groups at neutral and alkaline pH. […] Specific binding was calculated by subtracting background binding of di18:0 PE.
# [3] = target: T2, Aβ42-FAM bound to lipids containing 22:6 (Homo sapiens, UniProt P05067); test: Competition of Aβ42-FAM binding to plate-bound 22:6 lipid; details: competitor 5×, 1 μM
# T2 construct: SensoLyte Fluorescent β-Amyloid1-42 Sampler Kit, Anaspec; purchased Anaspec SensoLyte Fluorescent β-Amyloid1-42 Sampler Kit (catalogue number not given)
# Source text: Maleic Anhydride Activated plates (Pierce Amine-binding, 96-well plates, Thermo Scientific) were washed in wash buffer (PBS: Phosphate buffered saline, 0.15 M sodium chloride, pH 7.2 containing 0.05% Tween-20 Detergent, PBST, Thermo Scientific) 4 times to activate reactive maleic anhydride functional group. Amine containing lipids were PE containing docosahexaenoyl (22:6) and stearoyl (18:0) acyl chains (22:6/18:0 PE) or two stearoyl acyl chains (di18:0 PE) were from Avanti Polar Lipids. […] Plates were then washed 4 times in PBST and fluorescence was detected using Tecan Infinite 200 at wavelengths 494/521 (excitation, emission) using the Optimal Gain setting.
# Scrambled Aβ or unlabeled Aβ42 peptides (Anaspec) were diluted to 100 μM as above and then diluted in SuperBlock Blocking buffer to 1 μM, incubated for 1 hour at room temperature. Plates were washed and FAM fluorescence was read as above.
# as §1
# APPsw+ mice [4] = test: Novel object recognition (NOR) and activity during NOR training after intranasal SDPC; type: in vivo, mouse; details: 30 days intranasal escalated dose (0.5 then 2 mg/kg), SDPC vs saline treated APPsw+
# APPsw+ mice [5] = test: as above; type: in vivo, mouse
# Method: (§2) FIGS. 4A-4D. 10 days treatment with low dose SDPC. (A) After 10 days treatment (Tx) with low dose phosphatidylcholine (PC) containing docosahexaenoyl (22:6) and stearoyl (18:0) acyl chains, 18:0-22:6 PC; 1-stearoyl-2-docosahexaenoyl-sn-glycero-3-phosphocholine (CAS Number 59403-52-0; Synonyms: 1-octadecanoyl-2-(4Z,7Z,10Z,13Z,16Z,19Z-docosahexaenoyl)-sn-glycero-3-phosphocholine and PC(18:0/22:6(4Z,7Z,10Z,13Z,16Z,19Z))) (SDPC) intranasally, nesting score was assessed as described before (114). The number of nestlettes (from 3 initially placed in cage) was estimated and exact weight of remaining nestlettes was determined in grams (g) from initial 3 nestlettes (approximately 2 g). (B) Activity during novel object recognition (NOR) training was assessed after 10 days intranasal SDPC. Grooming behavior, free rearing, wall rearing and center crossing events are shown and were summed in total events. (C) Time spent with each identical object during NOR training. (D) Activity during Open Field testing 24 hours after NOR training (note, no difference in novel object discrimination (NOD) index was found. Standard error is shown for means of Saline treated APPsw+(control) (n=4); SDPC treated APPsw+(n=5) and wild type receiving no treatment (n=4). Significance was determined for p>0.05 using Student's t-test.
# FIGS. 5A-5B. Nesting and activity after 30 days treatment with escalating dose SDPC. (A) After 30 days treatment (Tx) with low dose SDPC intranasally, nesting score was assessed as described (114). The number of nestlettes remaining (from 3 initially placed in cage) was estimated and exact weight of remaining nestlettes was determined in grams (g remaining) from initial 3 nestlettes (approximately 2 g). (B) Activity during NOR training was assessed after 10 days intranasal SDPC. Grooming behavior, free rearing, wall rearing and center crossing events were summed in total events. Standard error is shown for means of Saline treated APPsw+(control) (n=4); SDPC treated APPsw+(n=5) and wild type receiving no treatment (n=4). Significance was determined for […] using Student's t-test.
# FIGS. 6A-6B. 30 days treatment with escalating dose SDPC. (A) Mice were placed in a box with two identical objects for 10 minutes on the training day 1. […] One object was replaced with a novel object for testing (NOD index). The same data is shown to scale in FIG. 6B (Testing (immediate)). Twenty-four hours later (Testing (24 hours)), mice were placed in the same context with one of the original identical objects (Familiar) and a second novel object (Novel). The time spent with each object was recorded. (B) For testing, novel object discrimination (NOD index) is assessed using the equation [(time novel)/(time familiar+time novel)].
# NOD index of 0.5 represents equal time with each object. NOD>0.5 represents more time spent with novel object. Standard error is shown for means of Saline treated APPsw+(control) (n=4); SDPC treated APPsw+(n=5) and wild type receiving no treatment (n=4). Significance was determined for p>0.05 using Student's t-test.
# SDPC was obtained from Avanti Polar Lipids (850472C) in chloroform, dried under vacuum conditions and resuspended in 0.9% saline (0.9% sodium chloride injection, USP, NDC 0409-7983-61, Hospira) containing 0.2% (weight:volume) methyl cellulose (average Mn 40,000, viscosity: 400 cP, CAS 9004-67-5, Sigma-Aldrich 274429) to aid in solubilization. A control solution of 0.9% saline containing 0.2% methyl cellulose was prepared at the same time without SDPC. A concentration of 3 mg/ml was used for doses 1-15 and 12 mg/ml was used for doses 16-18 (FIG. 3). Brief (3-5 minutes) bath sonication was used to improve solubility of 12 mg/ml concentration.
# Mice were treated for 10 days at a low dose of SDPC intranasally administered 2.5 uL each nostril (5 μL total dose) for 0.5 mg/kg every other day assuming average mouse weight of 30 g (0.03 kg) (FIG. 3). […]
# APPsw+ mice [6] = test: Nesting behavior after intranasal SDPC; type: in vivo, mouse; details: 10 days intranasal low dose 0.5 mg/kg every other day, vs saline treated APPsw+
# Method: as §2, with “Grooming behavior, free rearing, wall rearing and center crossing events are shown and were summed in total events. (C) Time spent with each identical object during NOR training.” left out
# FIGS. 5A-5B. […] (A) After 30 days treatment (Tx) with low dose SDPC intranasally, nesting score was assessed as described (114). […] (B) Activity during NOR training was assessed after 10 days intranasal SDPC. […] Significance was determined for […] using Student's t-test. […]
# APPsw+ mice [7] = test: Open Field testing after intranasal SDPC; type: in vivo, mouse; details: 10 days intranasal low dose; does not reach significance
# Method: as §2, with “t-test. […]” for “t-test.”
# [8] = 30 days intranasal escalated dose
molecule,measurement,setting,value
CCCCCCCCCCCCCCCCCC(=O)OC[C@H](COP(=O)(O)OCCN)OC(=O)CCCCCCCCCCCCCCCCC [di18:0 PE],Aβ42-FAM binding to apoE in presence of lipid,[1],only very minimally
same,binding of Aβ42-FAM to plate-bound lipid,"[2]; for di18:0: concentrations 10,000 pmol/well and below",very low binding activity
same,binding of Aβ42-FAM to plate-bound lipid at the highest concentrations,"[2]; highest lipid concentrations (above 10,000 pmol/well)",modest binding
unlabeled Aβ42 peptide: unlabeled Aβ42 peptide (Anaspec) used as competitor,disruption of Aβ42-FAM binding to 22:6 lipid by competitor peptide,[3],competitively disrupted
"CC/C=C\C/C=C\C/C=C\C/C=C\C/C=C\C/C=C\CCC(=O)O[C@H](COC(=O)CCCCCCCCCCCCCCCCC)COP(=O)([O-])OCC[N+](C)(C)C [SDPC, 1-stearoyl-2-docosahexaenoyl-sn-glycero-3-phosphocholine]",number of wall rears and total activity events,APPsw+ mice [4],significant improvement
same,"NOR discrimination (NOD index), tested 24 hours after training",APPsw+ mice [5]; 10 days intranasal low dose,no discrimination was found; also recorded: no difference
same,"activity during NOR training (wall rearing, free rearing, total activity level)","APPsw+ mice [5]; 10 days intranasal low dose 0.5 mg/kg every other day, vs saline treated APPsw+, 0.5 mg/kg",trend toward improvement; also recorded: non-significant trend for improvement
same,exploration: time spent with identical objects during NOR training,"APPsw+ mice [5]; 10 days intranasal low dose 0.5 mg/kg every other day, 0.5 mg/kg",trend toward improved exploratory behavior; also recorded: non-significant trend toward exploration activity
same,NOR deficits: time spent with a novel object,APPsw+ mice [5]; [8],significant amelioration
same,novel object discrimination index (NOD index),APPsw+ mice [5]; [8],significant changes were not observed; also recorded: trend for amelioration
same,"discrimination of one displaced identical object (hippocampal function), training day 2",APPsw+ mice [5]; 30 days intranasal escalating dose,no discrimination was determined
same,nesting behavior,APPsw+ mice [6],trend toward improvement; also recorded: non-significant trend for improvement
same,activity in the open field test following NOR testing,APPsw+ mice [7],continued improvement of activity level; also recorded: restored to the level of wild type non-treated mice

# Reference: patent US20180194822A1, “DISRUPTION OF THE INTERACTION BETWEEN AMYLOID BETA PEPTIDE AND DIETARY LIPIDS” (THE TRUSTEES OF COLUMBIA UNIVERSITY IN THE CITY OF NEW YORK, priority 2015, published 2018)
